pIC50: −log10 of the molar value.

The target in experiment [1] is T1, GABA receptor subunit (Musca domestica, UniProt Q75NA5).
T1 sequence (Q75NA5 whole entry): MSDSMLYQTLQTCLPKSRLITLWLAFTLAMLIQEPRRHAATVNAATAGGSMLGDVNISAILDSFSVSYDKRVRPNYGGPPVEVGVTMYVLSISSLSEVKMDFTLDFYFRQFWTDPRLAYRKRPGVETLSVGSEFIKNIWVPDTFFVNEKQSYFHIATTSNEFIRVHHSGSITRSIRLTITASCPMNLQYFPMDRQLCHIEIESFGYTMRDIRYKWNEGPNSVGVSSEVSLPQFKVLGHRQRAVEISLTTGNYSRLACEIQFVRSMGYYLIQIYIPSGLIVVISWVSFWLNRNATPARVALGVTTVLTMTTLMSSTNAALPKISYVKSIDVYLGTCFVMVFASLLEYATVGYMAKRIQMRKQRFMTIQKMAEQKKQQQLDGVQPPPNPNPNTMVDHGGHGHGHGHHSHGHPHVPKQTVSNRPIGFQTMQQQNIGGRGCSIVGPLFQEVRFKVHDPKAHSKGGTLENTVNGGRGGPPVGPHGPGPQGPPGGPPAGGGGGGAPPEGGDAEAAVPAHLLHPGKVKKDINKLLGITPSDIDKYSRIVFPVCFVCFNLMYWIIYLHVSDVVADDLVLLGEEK
Description: Displacement of [3H]EBOB from GABA receptor in Musca domestica (house fly) head P2 membrane after 70 min by liquid scintillation counting.

A short description of experiment [2]: Displacement of [3H]EBOB from GABA receptor in Rattus norvegicus (rat) membrane after 70 min by liquid scintillation counting. The class given is cell membranes. On the technique in general: In a radioligand displacement assay an active substance lowers the binding of a labelled ligand.
The nature of experiment [3]: Inhibition of GABA receptor-induced currents in Rattus norvegicus (rat) dorsal ganglion neuron.
The target in experiment [4] is T2, GABA receptor subunit (Musca domestica) (UniProt Q75NA5).
T2 sequence (whole entry): T1 sequence (Q75NA5 whole entry)
The experiment in a line: Displacement of [3H]EBOB from GABA receptor in Musca domestica (house fly) head P2 membrane at 2.2 uM after 70 min by liquid scintillation counting.

`CC(C)(C)CCOC(=O)c1ccc(C#CCCC(=O)O)cc1`: the pIC50 in experiment [1] was 7.06; in experiment [2], 5.47; in experiment [3], 6.27.
Regarding `COc1cc(O)c2c(c1C)C(C)C(O)(COC(=O)c1ccc(O)c(CC=C(C)C)c1)OC2=O` (stereo unspecified) [DIHYDROISOCOUMARIN], the inhibition in experiment [4] came out at 65%. Moreover, the pIC50 was 7.06 in experiment [1] and 5.47 in experiment [2].

By pIC50 is commonly meant the negative decadic logarithm of the IC50, by convention in mol/L. Low readings indicate a high IC50, high ones a low IC50. One may read the inhibition as how much of the control response was suppressed. A lower inhibition goes with a weak effect.

These data come from ChEMBL document CHEMBL3046753, “Isocoumarin Derivative as a Novel GABA Receptor Ligand from Neosartorya quadricincta” (J Pestic Sci, 2004).
